ChEMBL document CHEMBL1201862, “PubChem BioAssay data set” (2004)
The source made the active and inactive calls.

Key:
[1] = target: Long-chain-fatty-acid--AMP ligase FadD28 (Mycobacterium tuberculosis, UniProt P9WQ59); assay: Fluorescence polarization aasay to screen for inhibitors that compete for the binding of FadD28 to a bisubstrate Measured in Biochemical System Using Plate Reader - 2147-01_Inhibitor_Dose_CherryPick_Activity.; format: functional, Mycobacterium tuberculosis H37Rv
[2] = Counterscreen for inhibitors of Trypanosoma brucei methionyl tRNA synthetase (MetRS): Luminescence-based cell-based high throughput dose response assay to identify compounds that are cytotoxic to Jurkat human T lymphocyte cells.; format: functional
[3] = target: T1, Methionyl-tRNA synthetase, putative (Trypanosoma brucei brucei, UniProt Q38C91); format: functional, Trypanosoma brucei brucei strain 927/4 GUTat10.1
T1 sequence (Q38C91 whole entry): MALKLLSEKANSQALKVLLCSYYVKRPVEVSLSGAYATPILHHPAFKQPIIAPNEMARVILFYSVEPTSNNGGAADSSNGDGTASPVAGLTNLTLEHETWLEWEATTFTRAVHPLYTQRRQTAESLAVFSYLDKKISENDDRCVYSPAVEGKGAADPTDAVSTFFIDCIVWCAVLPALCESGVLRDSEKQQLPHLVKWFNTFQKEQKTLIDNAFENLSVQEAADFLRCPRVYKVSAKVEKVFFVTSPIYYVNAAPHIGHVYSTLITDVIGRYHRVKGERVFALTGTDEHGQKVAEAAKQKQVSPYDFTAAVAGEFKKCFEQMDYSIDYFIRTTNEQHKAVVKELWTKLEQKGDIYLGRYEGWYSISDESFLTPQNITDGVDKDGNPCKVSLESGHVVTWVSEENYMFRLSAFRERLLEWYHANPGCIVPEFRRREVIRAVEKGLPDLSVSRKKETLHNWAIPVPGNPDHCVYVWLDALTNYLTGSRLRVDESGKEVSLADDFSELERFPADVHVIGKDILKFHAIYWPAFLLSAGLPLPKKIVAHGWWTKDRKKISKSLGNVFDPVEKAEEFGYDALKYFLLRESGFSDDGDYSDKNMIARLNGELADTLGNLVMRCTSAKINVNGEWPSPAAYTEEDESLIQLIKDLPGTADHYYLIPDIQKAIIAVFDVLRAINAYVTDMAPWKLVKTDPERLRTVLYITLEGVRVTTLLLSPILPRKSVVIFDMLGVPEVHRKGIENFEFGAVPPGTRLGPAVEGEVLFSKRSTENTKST

[4] = target: T1, Methionyl-tRNA synthetase, putative; format: functional, Trypanosoma brucei brucei strain 927/4 GUTat10.1; remark: listed apart in the source
Beta-lactamase [5] = target: Beta-lactamase (Salmonella choleraesuis (strain SC-B67), UniProt Q5J463); assay: Epi-absorbance-based counterscreen for selective VIM-2 inhibitors: dose response biochemical high throughput screening assay to identify inhibitors of TEM-1 serine-beta-lactamase.
Sequence of Beta-lactamase (Salmonella choleraesuis (strain SC-B67), UniProt Q5J463) (Q5J463 whole entry): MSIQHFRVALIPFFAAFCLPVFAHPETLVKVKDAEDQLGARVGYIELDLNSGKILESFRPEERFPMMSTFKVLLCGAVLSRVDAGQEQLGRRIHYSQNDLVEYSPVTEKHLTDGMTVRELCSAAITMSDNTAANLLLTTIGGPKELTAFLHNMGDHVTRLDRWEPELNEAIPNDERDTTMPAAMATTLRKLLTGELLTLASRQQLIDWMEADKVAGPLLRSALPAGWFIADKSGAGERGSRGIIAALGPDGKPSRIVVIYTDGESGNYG

Beta-lactamase [6] = target: T2, Beta-lactamase (Pseudomonas aeruginosa, UniProt Q79MP6); assay: […] counterscreen for selective VIM-2 inhibitors: dose response biochemical high throughput screening assay to identify inhibitors of IMP-1 metallo-beta-lactamase.
T2 sequence (Q79MP6 whole entry): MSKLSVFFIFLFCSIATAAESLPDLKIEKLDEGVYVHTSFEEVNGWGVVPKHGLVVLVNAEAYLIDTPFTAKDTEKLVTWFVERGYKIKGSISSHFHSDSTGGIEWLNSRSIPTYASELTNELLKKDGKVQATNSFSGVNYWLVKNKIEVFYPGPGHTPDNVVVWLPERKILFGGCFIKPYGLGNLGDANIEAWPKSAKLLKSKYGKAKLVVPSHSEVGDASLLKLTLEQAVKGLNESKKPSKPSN

Beta-lactamase [7] = target: T2, Beta-lactamase; assay: inhibition of IMP-1 beta-lactamase activity – biochemical, epi-absorbance, selectivity assay for VIM-2 inhibitor project, dose response (AID 1920)
[8] = target: ADP-ribosylation factor GTPase-activating protein 1 (Rattus norvegicus, UniProt Q62848); assay: Fluorescence polarization-based biochemical high throughput dose response screening assay to identify inhibitors of ADP-ribosylation factor GTPase activating protein 1 (ARFGAP1).; format: functional
Sequence of ADP-ribosylation factor GTPase-activating protein 1 (Q62848 whole entry): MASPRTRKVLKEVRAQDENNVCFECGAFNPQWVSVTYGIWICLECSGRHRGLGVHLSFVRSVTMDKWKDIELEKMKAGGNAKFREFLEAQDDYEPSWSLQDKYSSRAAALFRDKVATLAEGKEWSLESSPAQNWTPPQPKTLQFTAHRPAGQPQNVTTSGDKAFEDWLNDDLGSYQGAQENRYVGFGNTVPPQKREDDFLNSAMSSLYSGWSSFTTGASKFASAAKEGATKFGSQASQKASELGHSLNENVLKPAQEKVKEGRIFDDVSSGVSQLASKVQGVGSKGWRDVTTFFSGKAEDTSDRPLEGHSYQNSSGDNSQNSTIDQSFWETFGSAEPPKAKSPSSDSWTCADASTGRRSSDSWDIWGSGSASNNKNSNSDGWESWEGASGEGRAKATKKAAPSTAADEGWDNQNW

Vero = assay: viability loss in Vero cells – cell-based, plate reader, cherry-pick samples, cytotoxicity control, dose response (AID 687020); format: functional; conditions: Chlorocebus sabaeus
Protein Wnt-3a = Protein Wnt-3a (Mus musculus, UniProt P27467); assay: antagonism of Wnt3a pathway luciferase reporter – Wnt-LIGHT cells, luminescence, selectivity assay for Gli-SUFU antagonist project, dose response (AID 651570); format: functional; conditions: read-out: IC50_Mean;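 further: Wnt-LIGHT reporter cells stimulated with conditioned medium from Wnt3a-producing cells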
Sequence of Protein Wnt-3a (P27467 whole entry): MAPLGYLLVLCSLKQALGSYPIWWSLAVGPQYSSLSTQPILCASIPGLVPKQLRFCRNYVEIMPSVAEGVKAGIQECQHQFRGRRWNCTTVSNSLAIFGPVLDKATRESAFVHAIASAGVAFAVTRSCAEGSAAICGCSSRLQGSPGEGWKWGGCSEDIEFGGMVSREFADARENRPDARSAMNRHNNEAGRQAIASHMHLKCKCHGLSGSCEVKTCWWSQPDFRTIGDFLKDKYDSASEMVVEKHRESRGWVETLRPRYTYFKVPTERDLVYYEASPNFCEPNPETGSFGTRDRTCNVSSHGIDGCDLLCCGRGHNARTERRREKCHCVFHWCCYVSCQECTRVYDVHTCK

INS1 = assay: INS-1E survival protection against cytokine death – cell-based, luminescence, retest, dose response (AID 449756); format: functional; conditions: Rattus norvegicus;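 further: cell death triggered by IL-1 beta plus TNF-alpha plus IFN-gamma mixture; protective hits raise ATP signal compared with cytokine alone wells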
Cytochrome P450 2D6 = Cytochrome P450 2D6 (Homo sapiens, UniProt P10635);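 further: CYP2D6 member of a cytochrome P450 panel assay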
Sequence of Cytochrome P450 2D6 (P10635 whole entry): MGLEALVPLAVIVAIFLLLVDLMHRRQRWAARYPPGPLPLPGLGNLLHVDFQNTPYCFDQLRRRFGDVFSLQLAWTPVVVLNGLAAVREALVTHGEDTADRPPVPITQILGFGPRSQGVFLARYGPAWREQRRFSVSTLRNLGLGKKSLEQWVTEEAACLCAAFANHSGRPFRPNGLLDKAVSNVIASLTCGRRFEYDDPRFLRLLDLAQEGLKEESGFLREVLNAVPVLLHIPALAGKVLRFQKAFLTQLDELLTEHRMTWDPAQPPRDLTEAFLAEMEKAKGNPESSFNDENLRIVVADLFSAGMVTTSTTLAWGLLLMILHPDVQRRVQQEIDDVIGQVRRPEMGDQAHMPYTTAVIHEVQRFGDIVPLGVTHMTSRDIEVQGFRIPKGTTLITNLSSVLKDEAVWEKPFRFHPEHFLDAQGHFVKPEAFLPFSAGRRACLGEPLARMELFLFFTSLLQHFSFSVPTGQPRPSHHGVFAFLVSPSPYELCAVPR

Sequence of Long-chain-fatty-acid--AMP ligase FadD28 (P9WQ59 whole entry): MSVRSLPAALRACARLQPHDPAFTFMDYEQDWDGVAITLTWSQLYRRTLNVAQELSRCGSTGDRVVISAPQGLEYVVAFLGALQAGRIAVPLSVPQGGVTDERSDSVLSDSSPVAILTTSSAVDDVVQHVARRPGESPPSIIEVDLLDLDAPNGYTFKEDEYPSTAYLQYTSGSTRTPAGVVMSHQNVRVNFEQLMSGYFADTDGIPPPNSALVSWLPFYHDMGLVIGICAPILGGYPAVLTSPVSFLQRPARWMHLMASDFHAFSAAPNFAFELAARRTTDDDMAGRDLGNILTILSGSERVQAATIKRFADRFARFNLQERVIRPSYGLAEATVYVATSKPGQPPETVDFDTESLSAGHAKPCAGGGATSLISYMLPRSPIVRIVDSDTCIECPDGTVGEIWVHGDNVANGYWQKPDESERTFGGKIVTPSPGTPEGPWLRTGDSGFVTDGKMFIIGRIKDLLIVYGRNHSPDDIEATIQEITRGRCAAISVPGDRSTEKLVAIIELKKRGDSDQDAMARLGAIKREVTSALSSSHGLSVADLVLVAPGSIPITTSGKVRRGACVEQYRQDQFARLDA

O=C(NN1C(=O)/C(=C/c2nc3ccccc3[nH]2)SC1=S)c1ccc(Cl)cc1
AC50 [1]: 1.13 µM (active) | IC50 [2]: 83.3 µM (inactive) | IC50 [3]: 82.6 µM (inactive) | IC50 [4]: 119 µM (inactive)

Sc1nnc(-c2ccco2)n1-c1cccc2ccccc12
IC50 (Beta-lactamase [5]): > 59.6 µM (inactive) | IC50 (Beta-lactamase [6]): > 59.6 µM (inactive) | IC50 (Beta-lactamase [7]): > 59.6 µM (inactive)

CCOC(=O)N1CCN(C(=O)CSc2nc(=O)n3cc(C)ccc3n2)CC1
IC50 [8]: 53.2 µM (inactive)

CN1C[C@@H]2[C@@H]3C(=O)N(Cc4ccccc4)C(=O)[C@@H]3[C@](C)(C1=O)N2C(=O)c1ccc(C(C)(C)C)cc1
AC50 (Vero): 24.6 µM (active)

Cc1cc(/C=N/n2cnnc2)c(C)n1-c1ccc(OCc2ccccc2F)cc1
IC50 (Protein Wnt-3a): 6.57 µM (active) | AC50 (INS1): 3.41 µM (active) | AC50 (Cytochrome P450 2D6): 17.8 µM (inconclusive)
